Laboratory results: PubChem BioAssay AID2060500 (Molecular Pharmacology Branch, DTP, NCI, 2025)
pIC50: −log10 of the molar value.

Test system: 596521-263-R-J1-PDC complex spheroids, viability % of control
Assay: Anticancer human tumor 596521-263-R-J1-PDC patient-derived soft tissue sarcoma cell line growth inhibition [GQUAD]
Details: for pIC50: curve of first compound; for viability, T/C: stronger effect = lower value
In short: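 Tumor cells were grown as complex spheroids with HUVEC endothelial cells and mesenchymal stem cells as stroma. G-quadruplex stabilizers were combined with targeted agents over half-log dilutions from near the clinical Cmax, or from 10 microM.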

[1] = second compound 0.0316 µM, first compound 0.0316 µM
[2] = second compound 0.0316 µM, first compound 0.1 µM
[3] = second compound 0.0316 µM, first compound 0.316 µM
[4] = second compound 0.0316 µM, first compound 1 µM
[5] = second compound 0.0316 µM, first compound 3.16 µM
[6] = second compound 0.0316 µM, first compound 10 µM
[7] = second compound 0.1 µM, first compound 0.0316 µM
[8] = second compound 0.1 µM, first compound 0.1 µM
[9] = second compound 0.1 µM, first compound 0.316 µM
[10] = second compound 0.1 µM, first compound 1 µM
[11] = second compound 0.1 µM, first compound 3.16 µM
[12] = second compound 0.1 µM, first compound 10 µM
[13] = second compound 0.316 µM, first compound 0.0316 µM
[14] = second compound 0.316 µM, first compound 0.1 µM
[15] = second compound 0.316 µM, first compound 0.316 µM
[16] = second compound 0.316 µM, first compound 1 µM
[17] = second compound 0.316 µM, first compound 3.16 µM
[18] = second compound 0.316 µM, first compound 10 µM
[19] = second compound 1 µM, first compound 0.0316 µM
[20] = second compound 1 µM, first compound 0.1 µM
[21] = second compound 1 µM, first compound 0.316 µM
[22] = second compound 1 µM, first compound 1 µM
[23] = second compound 1 µM, first compound 3.16 µM
[24] = second compound 1 µM, first compound 10 µM
[25] = second compound 3.16 µM, first compound 0.0316 µM
[26] = second compound 3.16 µM, first compound 0.1 µM
[27] = second compound 3.16 µM, first compound 0.316 µM
[28] = second compound 3.16 µM, first compound 1 µM
[29] = second compound 3.16 µM, first compound 3.16 µM
[30] = second compound 3.16 µM, first compound 10 µM
[31] = second compound 10 µM, first compound 0.0316 µM
[32] = second compound 10 µM, first compound 0.1 µM
[33] = second compound 10 µM, first compound 0.316 µM
[34] = second compound 10 µM, first compound 1 µM
[35] = second compound 10 µM, first compound 3.16 µM
[36] = second compound 10 µM, first compound 10 µM
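Further: spheroids exposed to drugs for 7 days before viability reading.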
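Wherever viability, T/C is given: 100% = DMSO vehicle control viability.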

Compound: C#Cc1c(F)ccc2cc(O)cc(-c3ncc4c(N5CC6CCC(C5)N6)nc(OCC56CCCN5CC(F)C6)nc4c3F)c12 (stereo unspecified) + CN(C)c1ccc(Nc2c3ccc(NC(=O)CCN4CCCC4)cc3nc3cc(NC(=O)CCN4CCCC4)ccc23)cc1
- pIC50 (second compound 0.0316 µM): < 5.00
- pIC50 (second compound 0.1 µM): < 5.00
- pIC50 (second compound 0.316 µM): < 5.00
- pIC50 (second compound 1 µM): < 5.00
- pIC50 (second compound 3.16 µM): < 5.00
- pIC50 (second compound 10 µM): 5.38
- viability, T/C [1]: 105%
- viability, T/C [2]: 95.1%
- viability, T/C [3]: 98.7%
- viability, T/C [4]: 115%
- viability, T/C [5]: 106%
- viability, T/C [6]: 99.2%
- viability, T/C [7]: 95.5%
- viability, T/C [8]: 96.1%
- viability, T/C [9]: 107%
- viability, T/C [10]: 108%
- viability, T/C [11]: 112%
- viability, T/C [12]: 92.3%
- viability, T/C [13]: 103%
- viability, T/C [14]: 106%
- viability, T/C [15]: 98.5%
- viability, T/C [16]: 97.3%
- viability, T/C [17]: 104%
- viability, T/C [18]: 83.1%
- viability, T/C [19]: 100%
- viability, T/C [20]: 111%
- viability, T/C [21]: 92.5%
- viability, T/C [22]: 88.6%
- viability, T/C [23]: 104%
- viability, T/C [24]: 96.8%
- viability, T/C [25]: 87.4%
- viability, T/C [26]: 87.2%
- viability, T/C [27]: 98.7%
- viability, T/C [28]: 90.5%
- viability, T/C [29]: 86.6%
- viability, T/C [30]: 78.3%
- viability, T/C [31]: 64.6%
- viability, T/C [32]: 66%
- viability, T/C [33]: 70.7%
- viability, T/C [34]: 64.2%
- viability, T/C [35]: 54.2%
- viability, T/C [36]: 36.8%

Compound: CC(=O)O[C@H]1C(=O)[C@@]2(C)[C@H]([C@H](OC(=O)c3ccccc3)[C@]3(O)C[C@H](OC(=O)[C@H](O)[C@@H](NC(=O)c4ccccc4)c4ccccc4)C(C)=C1C3(C)C)[C@]1(OC(C)=O)CO[C@@H]1C[C@@H]2O + CN(C)c1ccc(Nc2c3ccc(NC(=O)CCN4CCCC4)cc3nc3cc(NC(=O)CCN4CCCC4)ccc23)cc1
- pIC50 (second compound 0.0316 µM): > 7.50
- pIC50 (second compound 0.1 µM): > 7.50
- pIC50 (second compound 0.316 µM): > 7.50
- pIC50 (second compound 1 µM): > 7.50
- pIC50 (second compound 3.16 µM): > 7.50
- pIC50 (second compound 10 µM): > 7.50
- viability, T/C [1]: 40.7%
- viability, T/C [2]: 27.7%
- viability, T/C [3]: 25.7%
- viability, T/C [4]: 22.9%
- viability, T/C [5]: 26.8%
- viability, T/C [6]: 31.9%
- viability, T/C [7]: 37.5%
- viability, T/C [8]: 25.6%
- viability, T/C [9]: 24.3%
- viability, T/C [10]: 28%
- viability, T/C [11]: 23.1%
- viability, T/C [12]: 26.6%
- viability, T/C [13]: 37.2%
- viability, T/C [14]: 27.4%
- viability, T/C [15]: 25.2%
- viability, T/C [16]: 29.2%
- viability, T/C [17]: 29.3%
- viability, T/C [18]: 25.3%
- viability, T/C [19]: 38.3%
- viability, T/C [20]: 29%
- viability, T/C [21]: 26.5%
- viability, T/C [22]: 25.2%
- viability, T/C [23]: 28.3%
- viability, T/C [24]: 27.5%
- viability, T/C [25]: 35.6%
- viability, T/C [26]: 32.1%
- viability, T/C [27]: 26.9%
- viability, T/C [28]: 27.1%
- viability, T/C [29]: 27.3%
- viability, T/C [30]: 28.2%
- viability, T/C [31]: 34.3%
- viability, T/C [32]: 21.7%
- viability, T/C [33]: 21.4%
- viability, T/C [34]: 21.5%
- viability, T/C [35]: 21.6%
- viability, T/C [36]: 24.9%

Compound: CCCS(=O)(=O)Nc1ccc(F)c(C(=O)c2c[nH]c3ncc(-c4ccc(Cl)cc4)cc23)c1F + CN(C)c1ccc(Nc2c3ccc(NC(=O)CCN4CCCC4)cc3nc3cc(NC(=O)CCN4CCCC4)ccc23)cc1
- pIC50 (second compound 0.0316 µM): 5.29
- pIC50 (second compound 0.1 µM): 5.26
- pIC50 (second compound 0.316 µM): 5.25
- pIC50 (second compound 1 µM): 5.18
- pIC50 (second compound 3.16 µM): 5.30
- pIC50 (second compound 10 µM): 5.74
- viability, T/C [1]: 94.7%
- viability, T/C [2]: 83.9%
- viability, T/C [3]: 95.3%
- viability, T/C [4]: 82.1%
- viability, T/C [5]: 65.8%
- viability, T/C [6]: 29.4%
- viability, T/C [7]: 101%
- viability, T/C [8]: 88.9%
- viability, T/C [9]: 104%
- viability, T/C [10]: 83%
- viability, T/C [11]: 69.8%
- viability, T/C [12]: 29.9%
- viability, T/C [13]: 94.4%
- viability, T/C [14]: 93.8%
- viability, T/C [15]: 89.4%
- viability, T/C [16]: 80%
- viability, T/C [17]: 65.9%
- viability, T/C [18]: 34.4%
- viability, T/C [19]: 98.5%
- viability, T/C [20]: 97.7%
- viability, T/C [21]: 85.8%
- viability, T/C [22]: 84.1%
- viability, T/C [23]: 71%
- viability, T/C [24]: 39.1%
- viability, T/C [25]: 93.2%
- viability, T/C [26]: 91.7%
- viability, T/C [27]: 94%
- viability, T/C [28]: 84.3%
- viability, T/C [29]: 56.9%
- viability, T/C [30]: 39.8%
- viability, T/C [31]: 62.9%
- viability, T/C [32]: 60.5%
- viability, T/C [33]: 56.9%
- viability, T/C [34]: 57.3%
- viability, T/C [35]: 44.5%
- viability, T/C [36]: 30.1%
